Results published in patent US20240199547A1, “OPTICAL ABSORBENT COMPOSITION” (LMS CO., LTD., priority 2022, published 2024).

Assay: Solubility of each synthesized chemical compound in solvents at room temperature
Assay type: physicochemical
Conditions: room temperature (about 25° C.); for Solubility in MEK: methyl ethyl ketone (MEK); for Solubility in MIBK: methyl isobutyl ketone (MIBK)
Experimental: The solubility of each synthesized chemical compound was evaluated. Solubility was determined according to the following criteria by evaluating the solubility of each chemical compound in a plurality of solvents (cyclohexanone, toluene, methyl isobutyl ketone (MIBK) or methyl ethyl ketone (MEK)) at room temperature (about 25° C.).
A: When the solubility is 1% by mass or more.
B: When the solubility is 0.5% by mass or more and less than 1% by mass.
C: When the solubility is 0.2% by mass or more and less than 0.5% by mass.
D: When the solubility is less than 0.2% by mass.
The solubility evaluation results were summarized and described in Table 1.

Structure (SMILES) | Solubility in Cyclohexanone | Solubility in MEK | Solubility in MIBK | Solubility in Toluene
CCCCC(CC)C(=O)Nc1cc2c(cc1C1=C([O-])/C(=c3\cc4c(cc3NC(=O)C(CC)CCCC)=[N+](CCCC)C(C)C4(C)C)C1=O)C(C)(C)C(C)N2CCCC (centres unmarked) [Synthesis Example 2] | A (When the solubility is 1% by mass or more.) | A (When the solubility is 1% by mass or more.) | A (When the solubility is 1% by mass or more.) | A (When the solubility is 1% by mass or more.)
CCCCCCN1c2cc(NC(=O)OCC)c(C3=C([O-])/C(=c4\cc5c(cc4NC(=O)OCC)=[N+](CCCCCC)C(C)C5(C)C)C3=O)cc2C(C)(C)C1C (centres unmarked) [Synthesis Example 5] | A (When the solubility is 1% by mass or more.) | A (When the solubility is 1% by mass or more.) | A (When the solubility is 1% by mass or more.) | A (When the solubility is 1% by mass or more.)
CC(=O)Nc1cc2c(cc1C1=C([O-])/C(=c3\cc4c(cc3NC(C)=O)=[N+](C)C(C)C4(C)C)C1=O)C(C)(C)C(C)N2C (centres unmarked) [Synthesis Example 6] | B (When the solubility is 0.5% by mass or more and less than 1% by mass.) | B (When the solubility is 0.5% by mass or more and less than 1% by mass.) | B (When the solubility is 0.5% by mass or more and less than 1% by mass.) | B (When the solubility is 0.5% by mass or more and less than 1% by mass.)
CCCC(=O)Nc1cc2c(cc1C1=C([O-])/C(=c3\cc4c(cc3NC(=O)CCC)=[N+](CCOC)C(C)C4(C)C)C1=O)C(C)(C)C(C)N2CCOC (centres unmarked) [Synthesis Example 4] | A (When the solubility is 1% by mass or more.) | A (When the solubility is 1% by mass or more.) | A (When the solubility is 1% by mass or more.) | A (When the solubility is 1% by mass or more.)
CCCCCCCCN1c2cc(NC(=O)C(F)(F)F)c(C3=C([O-])/C(=c4\cc5c(cc4NC(=O)C(F)(F)F)=[N+](CCCCCCCC)C(CC)C5(C)C)C3=O)cc2C(C)(C)C1CC (centres unmarked) [Synthesis Example 3] | A (When the solubility is 1% by mass or more.) | A (When the solubility is 1% by mass or more.) | A (When the solubility is 1% by mass or more.) | A (When the solubility is 1% by mass or more.)
